Assay [1] relates to PC12 pheochromocytoma cells. Nature of the assay: Neurite outgrowth in in vitro PC12 neuronal cell model (NGF, no hypoxia), Examples 5 and 6. It counts as cell-based. The conditions noted are these: total concentration of 20 μM choline from chol-CI, PC or both, control set at 100%.
Description: The effects of nutrient supplementation on neurite outgrowth parameters in PC12 pheochromocytoma cells was also assessed.
PC12 pheochromocytoma cells were grown in DMEM (Gibco), supplemented with 10% fetal bovine serum (FBS), penicillin (100 units/ml), and streptomycin (100 μg/ml) (Gibco), under a humidified atmosphere with 95% air and 5% CO2 at 37° C. Cells were seeded in collagen (0.01 mg/ml) coated 96 well plates at a density of 5000 cells/well and after 24 hours supplemented with medium containing 20 ng/ml nerve growth factor (NGF) with or without coenzyme Q10 (1 μM), vitamin D3 ((0.25 μM), vitamin B2 (0.5 μM), DHA (6.7 μM), a source of choline (20 μM phosphatidylcholine, PC) or a mixture thereof.
In the PC12 experiments the cells were not exposed to hypoxia.
Docosahexaenoic acid (DHA) was resuspended in absolute ethanol and diluted 5 times in fetal bovine serum. All compounds were purchased from Sigma (Zwijndrecht, The Netherlands).
Supplementation of cells was performed in 6-fold in 96 wells plates. These conditions were compared to non-supplemented cells. After supplementation for 48 hours with these combinations, cells were stained using Calcein-AM stain (2 ng/μl) and the nuclei were counterstained using Hoechst stain (0.6 μg/ml), in 100 μl culture medium per well and incubated for 20 min at 37° C. Subsequently, FITC and DAPI images (9 images per well for 96 wells plate) were taken using an ImageXpress high content imaging system. Neurite length was quantified using the neurite outgrowth module in MetaXpress.
Nutrients were supplemented alone (100% chol-CI or 100% PC) and in a ratio of 60:40 and 40:60 of chol-CI to PC. Supplementation of cells was performed in 6-fold in 96 wells plates at a total concentration of 20 μM choline, derived from chol-CI, from PC, or from both. The neurite outgrowth in these conditions were compared to non-supplemented PC12 cells.
In assay [2] the test system is Mouse primary cortical neurons (E14). The experiment in a line: Neurite outgrowth after hypoxia (oxygen glucose deprivation), cortical neuronal cultures, Example 3. The note with it: OGD 3.5 hrs; vitamin D3 30 nM, co-enzyme Q10 3 μM, vitamin B2 30 nM, alone or combined; supplemented immediately after OGD for 24 hrs; control set at 100%. The format is cell-based. How it is done:
Mouse primary cortical neurons (E14) were seeded onto 96-well plates coated with poly-D-lysine. Cells (20.000 cells/well) were cultured in modified Neurobasal medium (containing B27, Pen/Strep, and GlutaMAX). Cell cultures were incubated at 37° C. in 5% CO2 and medium was replaced every 2-3 days. At day 2 of in vitro culturing, cells underwent oxygen glucose deprivation (OGD) for 3.5 hrs. In order to induce glucose deprivation, modified Neurobasal medium was replaced with an equivalent volume of HBSS. For hypoxia, cells were placed in a humidity-controlled incubator (Whitley H35 Hypoxystation) set to 0.5% O2, 94.5% N2 and 5% CO2 at 37° C. for 3.5 hrs. After the hypoxic incubation period, HBSS was removed and replaced with modified Neurobasal medium, and plates returned to normoxic conditions and incubated at 37° C. in 5% CO2 for an additional 24 hrs. […] Nutrients were supplemented either alone, in combination of two, or in combination of three, starting immediately after the OGD and lasting for another 24 hrs. Every condition was tested in triplicate. […] At the end of the experiment, plates were fixed PFA for 5 min at room temperature. Then, cells were permeabilized and blocked using PBS containing 10% normal goat serum, 0.1% sodium azide and 0.2% Triton X-100. Cells were stained overnight with a monoclonal anti-beta-tubulin III antibody (Sigma Aldrich, T8578). Next, cells were stained with the secondary antibody Alexa Fluor 488 Goat anti-Mouse IgG (H+L) (Invitrogen A11001 Fisher, 10256302). Nuclei were stained with Hoechst 33342 (Thermofisher, H3570). Images were taken at a magnification of 20× in 12 fields of view using In Cell Analyser 2000.

In the case of `C[N+](C)(C)CCO.[Cl-]` [100% chol-CI, choline chloride], the “neurite outgrowth compared to unsupplemented control PC12 cells” value in assay [1] is listed as “improved neurite outgrowth”. Turning to `COC1=C(OC)C(=O)C(C/C=C(\C)CC/C=C(\C)CC/C=C(\C)CC/C=C(\C)CC/C=C(\C)CC/C=C(\C)CC/C=C(\C)CC/C=C(\C)CC/C=C(\C)CCC=C(C)C)=C(C)C1=O` [co-enzyme Q10, 2,3 dimethoxy-5 methyl-6-decaprenyl benzoquinone], in assay [2], the “neurite outgrowth after hypoxia relative to control” value was “did not affect neurite outgrowth”. For `Cc1cc2nc3c(=O)[nH]c(=O)nc-3n(C[C@H](O)[C@H](O)[C@H](O)CO)c2cc1C` [vitamin B2, riboflavin], in assay [2], the “neurite outgrowth after hypoxia relative to control” value was “did not affect neurite outgrowth”. In the case of `C=C1CC[C@H](O)C/C1=C/C=C1\CCC[C@]2(C)[C@@H]([C@H](C)CCCC(C)C)CC[C@@H]12` [vitamin D3, cholecalciferol], the “neurite outgrowth after hypoxia relative to control” value in assay [2] is “did not affect neurite outgrowth”. Take phosphatidylcholine [100% PC]: the “neurite outgrowth compared to unsupplemented control PC12 cells” value in assay [1] was “increases neurite outgrowth slightly more than supplementation with 100% chol-CI”; in assay [1] (listed as PC), “slightly better effect on neurite outgrowth than choline chloride”.
